Calls of active or inactive are those of the source. No cut-off for these calls is given here.
Test system: not listed separately
Assay: (§1) Hepatotoxicity in Balb/c mouse infected with Trypanosoma cruzi MHOM/Pe/2011/Arequipa DTU 5 trypomastigotes assessed as increase in ratio of serum ALT to GPT level at 20 mg/kg, po once daily for 5 consecutive days starting from day 75 post infection measured on day 81 post infection relative to control
Format: toxicity, organism-based
Settings: in vivo

SMILES | Activity [U/L]
O=C(Cn1ccnc1[N+](=O)[O-])NCc1ccccc1 [BENZNIDAZOLE] | 20 to 30

Test system: Trypanosoma cruzi
Assay: Antitrypanosomal activity against Trypanosoma cruzi MHOM/Pe/2011/Arequipa DTU 5 epimastigotes assessed as change in mitochondrial membrane potential at IC25 after 72 hrs by Rho123 staining based flow cytometry relative to control
Format: functional
Settings: not given

SMILES | Activity [%]
O=C(Cn1ccnc1[N+](=O)[O-])NCc1ccccc1 [BENZNIDAZOLE] | -35.38

Test system: not listed separately
Assay: Nephrotoxicity in Balb/c mouse infected with Trypanosoma cruzi MHOM/Pe/2011/Arequipa DTU 5 trypomastigotes assessed as decrease in serum urea level at 20 mg/kg, po once daily for 5 consecutive days starting from day 75 post infection measured on day 81 post infection relative to control
Format: toxicity, organism-based
Settings: in vivo

SMILES | Activity [mg/dL]
O=C(Cn1ccnc1[N+](=O)[O-])NCc1ccccc1 [BENZNIDAZOLE] | 20 to 30

Test system: Trypanosoma cruzi
Assay: (§2) Antitrypanosomal activity against Trypanosoma cruzi MHOM/Pe/2011/Arequipa DTU 5 trypomastigotes infected in Balb/c mouse assessed as parasite-free heart at 20 mg/kg, po pretreated once daily for 5 consecutive days starting from day 75 post infection followed by cyclophosphamide-induced immunosuppression on day 100 post infection measured on day 127 post infection by PCR method
Format: functional
Settings: not given

SMILES | Activity [%]
O=C(Cn1ccnc1[N+](=O)[O-])NCc1ccccc1 [BENZNIDAZOLE] | 55

Test system: Trypanosoma cruzi
Assay: as §2, with “adipose tissue” for “heart”, “10” for “75”
Format: functional
Settings: not given

SMILES | Activity [%]
O=C(Cn1ccnc1[N+](=O)[O-])NCc1ccccc1 [BENZNIDAZOLE] | 33

Test system: Trypanosoma cruzi
Assay: (§3) Antitrypanosomal activity against Trypanosoma cruzi MHOM/Pe/2011/Arequipa DTU 5 trypomastigotes infected in Balb/c mouse assessed as reduction in parasitaemia reactivation at 20 mg/kg, po pretreated once daily for 5 consecutive days starting from day 75 post infection followed by cyclophosphamide-induced immunosuppression on day 100 post infection measured within 1 week post immunosuppression by Neubauer chamber method
Format: functional
Set-up: scale not given: the % may be the effect or the level left
Settings: not given

SMILES | Activity [%]
O=C(Cn1ccnc1[N+](=O)[O-])NCc1ccccc1 [BENZNIDAZOLE] | 51

Test system: Trypanosoma cruzi
Assay: as §2, with “spleen” for “heart”
Format: functional
Settings: not given

SMILES | Activity [%]
O=C(Cn1ccnc1[N+](=O)[O-])NCc1ccccc1 [BENZNIDAZOLE] | 55

Test system: Trypanosoma cruzi
Assay: as §2, with “bone marrow” for “heart”
Format: functional
Settings: not given

SMILES | Activity [%]
O=C(Cn1ccnc1[N+](=O)[O-])NCc1ccccc1 [BENZNIDAZOLE] | 55

Test system: Trypanosoma cruzi
Assay: as §2, with “oesophagus” for “heart”
Format: functional
Settings: not given

SMILES | Activity [%]
O=C(Cn1ccnc1[N+](=O)[O-])NCc1ccccc1 [BENZNIDAZOLE] | 55

Test system: not listed separately
Assay: as §1, with “AST” for “ALT”, “GOT” for “GPT”, “10” for “75”, “16” for “81”
Format: toxicity, organism-based
Settings: in vivo

SMILES | Activity [U/L]
O=C(Cn1ccnc1[N+](=O)[O-])NCc1ccccc1 [BENZNIDAZOLE] | > 40

Test system: Trypanosoma cruzi
Assay: Antitrypanosomal activity against Trypanosoma cruzi MHOM/Pe/2011/Arequipa DTU 5 trypomastigotes infected in Balb/c mouse assessed as reduction in splenomegaly at 20 mg/kg, po once daily for 5 consecutive days starting from day 10 post infection measured on day 127 post infection relative to control
Format: functional
Settings: not given

SMILES | Activity
O=C(Cn1ccnc1[N+](=O)[O-])NCc1ccccc1 [BENZNIDAZOLE] | Active

Test system: Trypanosoma cruzi
Assay: as §2, with “bone marrow” for “heart”, “10” for “75”
Format: functional
Settings: not given

SMILES | Activity [%]
O=C(Cn1ccnc1[N+](=O)[O-])NCc1ccccc1 [BENZNIDAZOLE] | 33

Test system: Trypanosoma cruzi
Assay: Antitrypanosomal activity against Trypanosoma cruzi MHOM/Pe/2011/Arequipa DTU 5 trypomastigotes infected in Balb/c mouse assessed as reduction in Ig-G level in serum at 20 mg/kg, po once daily for 5 consecutive days starting from day 10 post infection measured on day 16 post infection by ELISA
Format: functional, organism-based
Settings: not given

SMILES | Activity
O=C(Cn1ccnc1[N+](=O)[O-])NCc1ccccc1 [BENZNIDAZOLE] | Active

Test system: Trypanosoma cruzi
Assay: as §2, with “stomach” for “heart”
Format: functional
Settings: not given

SMILES | Activity [%]
O=C(Cn1ccnc1[N+](=O)[O-])NCc1ccccc1 [BENZNIDAZOLE] | 55

Test system: Trypanosoma cruzi
Assay: Antitrypanosomal activity against Trypanosoma cruzi MHOM/Pe/2011/Arequipa DTU 5 trypomastigotes infected in Balb/c mouse assessed as reduction in Ig-G level in serum at 20 mg/kg, po once daily for 5 consecutive days starting from day 75 post infection measured on day 81 post infection by ELISA
Format: functional, organism-based
Settings: not given

SMILES | Activity
O=C(Cn1ccnc1[N+](=O)[O-])NCc1ccccc1 [BENZNIDAZOLE] | inactive

Test system: not listed separately
Assay: as §1, with “AST” for “ALT”, “GOT” for “GPT”
Format: toxicity, organism-based
Settings: in vivo

SMILES | Activity [U/L]
O=C(Cn1ccnc1[N+](=O)[O-])NCc1ccccc1 [BENZNIDAZOLE] | 20 to 30

Test system: Trypanosoma cruzi
Assay: Trypanocidal activity against Trypanosoma cruzi MHOM/Pe/2011/Arequipa DTU 5 amastigotes infected in African green monkey Vero cells assessed as reduction in number of amastigotes per infected cells at log -0.41 to 1.7 after 72 hrs by Giemsa-staining based assay
Format: functional, organism-based
Settings: not given

SMILES | Activity
O=C(Cn1ccnc1[N+](=O)[O-])NCc1ccccc1 [BENZNIDAZOLE] | Active

Test system: Trypanosoma cruzi
Assay: Antitrypanosomal activity against Trypanosoma cruzi MHOM/Pe/2011/Arequipa DTU 5 trypomastigotes infected in Balb/c mouse assessed as reduction in Ig-G level in serum at 20 mg/kg, po once daily for 5 consecutive days starting from day 10 post infection measured on day 100 post infection by ELISA
Format: functional, organism-based
Settings: not given

SMILES | Activity
O=C(Cn1ccnc1[N+](=O)[O-])NCc1ccccc1 [BENZNIDAZOLE] | Active

Test system: Trypanosoma cruzi
Assay: (§4) Antitrypanosomal activity against Trypanosoma cruzi MHOM/Pe/2011/Arequipa DTU 5 trypomastigotes infected in Balb/c mouse assessed as reduction in Ig-G level in serum at 20 mg/kg, po pretreated once daily for 5 consecutive days starting from day 10 post infection followed by cyclophosphamide-induced immunosuppression on day 100 post infection measured on day 127 post infection by ELISA
Format: functional, organism-based
Settings: not given

SMILES | Activity
O=C(Cn1ccnc1[N+](=O)[O-])NCc1ccccc1 [BENZNIDAZOLE] | Active

Test system: Trypanosoma cruzi
Assay: as §3, with “10” for “75”
Format: functional
Set-up: scale not given: the % may be the effect or the level left
Settings: not given

SMILES | Activity [%]
O=C(Cn1ccnc1[N+](=O)[O-])NCc1ccccc1 [BENZNIDAZOLE] | 75

Test system: not listed separately
Assay: Toxicity in Balb/c mouse assessed as reduction in body mass at 20 mg/kg, po once daily for 5 consecutive days starting from day 75 post infection relative to control
Format: organism-based
Set-up: scale not given: the % may be the effect or the level left
Settings: in vivo

SMILES | Activity [%]
O=C(Cn1ccnc1[N+](=O)[O-])NCc1ccccc1 [BENZNIDAZOLE] | > 10

Test system: Trypanosoma cruzi
Assay: as §2, with “adipose tissue” for “heart”
Format: functional
Settings: not given

SMILES | Activity [%]
O=C(Cn1ccnc1[N+](=O)[O-])NCc1ccccc1 [BENZNIDAZOLE] | 55

Test system: Trypanosoma cruzi
Assay: as §2, with “spleen” for “heart”, “10” for “75”
Format: functional
Settings: not given

SMILES | Activity [%]
O=C(Cn1ccnc1[N+](=O)[O-])NCc1ccccc1 [BENZNIDAZOLE] | 33

Test system: Trypanosoma cruzi
Assay: as §2, with “muscle” for “heart”
Format: functional
Settings: not given

SMILES | Activity [%]
O=C(Cn1ccnc1[N+](=O)[O-])NCc1ccccc1 [BENZNIDAZOLE] | 55

Test system: Trypanosoma cruzi
Assay: as §2, with “lungs” for “heart”, “10” for “75”
Format: functional
Settings: not given

SMILES | Activity [%]
O=C(Cn1ccnc1[N+](=O)[O-])NCc1ccccc1 [BENZNIDAZOLE] | 33

Test system: not listed separately
Assay: Nephrotoxicity in Balb/c mouse infected with Trypanosoma cruzi MHOM/Pe/2011/Arequipa DTU 5 trypomastigotes assessed as decrease in serum urea level at 20 mg/kg, po once daily for 5 consecutive days starting from day 10 post infection measured on day 16 post infection relative to control
Format: toxicity, organism-based
Settings: in vivo

SMILES | Activity [mg/dL]
O=C(Cn1ccnc1[N+](=O)[O-])NCc1ccccc1 [BENZNIDAZOLE] | 20 to 30

Test system: Trypanosoma cruzi
Assay: as §2, with “lungs” for “heart”
Format: functional
Settings: not given

SMILES | Activity [%]
O=C(Cn1ccnc1[N+](=O)[O-])NCc1ccccc1 [BENZNIDAZOLE] | 55

Test system: not listed separately
Assay: Nephrotoxicity in Balb/c mouse infected with Trypanosoma cruzi MHOM/Pe/2011/Arequipa DTU 5 trypomastigotes assessed as decrease in serum urea level at 20 mg/kg, po once daily for 5 consecutive days starting from day 75 post infection measured on day 127 post infection relative to control
Format: toxicity, organism-based
Settings: in vivo

SMILES | Activity [mg/dL]
O=C(Cn1ccnc1[N+](=O)[O-])NCc1ccccc1 [BENZNIDAZOLE] | 20 to 30

Test system: Trypanosoma cruzi
Assay: as §4, with “from day 75 post infection” for “from day 10 post infection”
Format: functional, organism-based
Settings: not given

SMILES | Activity
O=C(Cn1ccnc1[N+](=O)[O-])NCc1ccccc1 [BENZNIDAZOLE] | Active

Source: ChEMBL document CHEMBL4411344, “Synthesis and biological evaluation of new long-chain squaramides as anti-chagasic agents in the BALB/c mouse model” (Bioorg Med Chem, 2019)
